From US11192849B2, “Compounds, compositions, and methods for modulating ferroptosis and treating excitotoxic disorders” (THE TRUSTEES OF COLUMBIA UNIVERSITY IN THE CITY OF NEW YORK, priority 2013, dated 2021)

How the values were obtained:
HT-1080 cells [1] = test: LOC library screening and confirmation: suppression of erastin-induced death; type: cell-based; conditions: Homo sapiens, LOC library screening and confirmation studies, read-out: EC50, inhibition of erastin-induced ferroptosis
Description: The LOC library was screened over the course of several days. 384-well glass bottom assay plates (Corning) were seeded with 1,000 HT-1080 cells/well the day before the experiment. The day of the experiment, LOC mother plates were thawed at room temperature for 1 hour and spun at 1000 rpm for 1 minute prior to use. Using a BioMek liquid handing robot, 2 μL of compound solution from each LOC library mother plate was transferred to a 384 deep well “daughter” plate (Grenier) containing 148 μL of cell culture media. The cell culture media in each assay plate was then removed by flicking and, using a BioMek FX, replaced with 36 μL of growth media containing erastin (5 μM final). To this was added 4 μL of the drug solution from the daughter plate, for a final screening concentration of 5.3 μg/mL for each LOC library compound. 4 wells containing DMSO alone (no erastin), 4 wells containing 100 μM DFO alone (no erastin), 4 wells containing erastin plus DMSO, and 4 wells containing erastin plus 100 μM DFO (positive control) were included as controls on each plate. Each drug daughter plate was aliquoted separately to duplicate assay plates. Plates were then spun briefly (1000 rpm, 5 seconds) and returned to the 37° C. tissue culture incubator. 24 hours later, cell viability was assessed by Alamar Blue as described above.
Candidate hits from the LOC library screen were identified. […]

[2] = tested on: mice, CaOx-induced nephropathy; test: Acute oxalate nephropathy model; type: in vivo, mouse; conditions: Ferrostatin-1 10 mg/kg i.p.
Description: Mice were divided into two groups. One group received vehicle injections and another group received Ferrostatin-1 (10 mg/kg i.p.). Then, 15 min later, both groups were given a single i.p. injection of 100 mg/kg sodium oxalate and 3% sodium oxalate in drinking water. Blood samples and kidneys were harvested after 24 h. Kidneys were kept at −80° C. for protein isolation and at −20° C. for RNA isolation. One part of the kidney was also kept in formalin to be embedded in paraffin for histological analysis. Kidney sections (2 μm) were stained with periodic acid-Schiff (PAS) reagent. Tubular injury was scored by assessing the percentage of necrotic tubules. Ly6B.2+ neutrophils were identified by immunostaining (clone 7/4; Serotec). Pizzolato stain was used to visualize CaOx crystals, and crystal deposit formation in the kidney was evaluated as described previously (Mulay et al., 2013), using the following point values: 0, no deposits; 1, crystals in papillary tip; 2, crystals in cortical medullary junction; 3, crystals in cortex. […] Serum creatinine and blood urea nitrogen were measured using Creatinine FS kit and Urea FS kit (both from DiaSys Diagnostic Systems) according to the manufacturer's protocol. Neutrophil infiltrates were counted in 15 high-power fields (hpfs) per section. For real-time quantitative RT-PCR, total RNA was isolated from kidneys using a Qiagen RNA extraction kit following the manufacturer's instructions. After quantification, RNA quality was assessed using agarose gels. […] Real-time quantitative RT-PCR (TaqMan) was performed using SYBR-Green PCR master mix and analyzed with a Light Cycler 480 (Roche). […] The expression of KIM-1, IL-6, CXCL-2, and NF-κB p65 was analyzed using the following primers: Kim-1 forward, 5′-[…]-3′ (SEQ ID NO:17); Kim-1 reverse, 5′-[…]-3′ (SEQ ID NO:18); IL-6 forward, 5′-[…]-3′ (SEQ ID NO:19); IL-6 reverse, 5′-[…]-3′ (SEQ ID NO:20); CXCL-2 forward, 5′-[…]-3′ (SEQ ID NO:21); CXCL-2 reverse, 5′-[…]-3′ (SEQ ID NO:22); NF-κB p65 forward, 5′-[…]-3′ (SEQ ID NO:23); NF-κB p65 reverse, 5′-[…]-3′ (SEQ ID NO:24).

HT-1080 cells [3] = test: Mitochondrial cardiolipin peroxidation (10-N-nonylacridine orange) in HT-1080 cells; type: cell-based, human; conditions: STS 100 nM, NAO probe
Description: 200,000 HT-1080 cells were seeded into 6-well dishes (Corning). […] For the analysis of mitochondrial ROS, cells were incubated with 5 μM MitoSOX (Molecular Probes/Invitrogen) in HBSS for 10 minutes in the dark at 37° C. For the analysis of mitochondrial cardiolipin peroxidation, cells were incubated with NAO dissolved to a final concentration of 25 ng/mL in HBSS for 10 minutes in the dark at 37° C. Cells were then washed once in HBSS and measurements were subsequently acquired using an flow cytometer (BD/Accuri C6) equipped with a 488 nm laser for excitation of fluorophores. MitoSOX data were collected in the FL2 channel and NAO data was collected in the FL1 channel. Data are from three independent biological replicates of each experiment. Data were analyzed by one-way ANOVA with Bonferroni's post-hoc test.

## CCOC(=O)c1ccc(NC2CCCCC2)c(N)c1 [SRS8-28 (Fer-1), ethyl 3-amino-4-(cyclohexylamino)benzoate]
HT-1080 cells [1]
  EC50: 60 nM
[2]
  neutrophil infiltration and expression of CXCL-2, IL-6, KIM-1, p65: statistically significantly reduced
  serum creatinine and urea: significantly reduced
  tubular injury score: significantly reduced
HT-1080 cells [3]
  mitochondrial cardiolipin oxidation in response to staurosporine: did not prevent
